Assay results as given in patent US20210045385A1, “PYRIDAZINONE-SUBSTITUTED KETOXIMES AS HERBICIDES” (FMC Corporation, priority 2018, published 2021).

Assays:
Assay type in all cases: in vivo
[1] = system: Italian ryegrass (Lolium mutiflorum); test: Test C preemergence, visual plant response rating; conditions: Test C, 0 is no effect, 100 is complete control
Outline: (§1)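 Compounds in a non-phytotoxic solvent with surfactant were applied as a directed soil spray preemergence or to 2–10 cm, one- to two-leaf plants postemergence, in loam–sand soil. After about 10 d in a greenhouse, injury was visually rated against untreated controls on a 0–100 scale (100 = complete control).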

[2] = system: barnyardgrass (Echinochloa crus-galli); test: Test C preemergence, visual plant response rating; conditions: Test C, 0 is no effect, 100 is complete control
Outline: as §1

[3] = system: foxtail, giant (giant foxtail, Setaria faberi); test: Test C preemergence, visual plant response rating; conditions: Test C, 0 is no effect, 100 is complete control
Outline: as §1

[4] = system: kochia (Bassia scoparia); test: Test C preemergence, visual plant response rating; conditions: Test C, 0 is no effect, 100 is complete control
Outline: as §1

[5] = system: pigweed (Amaranthus retroflexus); test: Test C preemergence, visual plant response rating; conditions: Test C, 0 is no effect, 100 is complete control
Outline: as §1

[6] = system: ragweed (common ragweed, Ambrosia artemisiifolia); test: Test C preemergence, visual plant response rating; conditions: Test C, 0 is no effect, 100 is complete control
Outline: as §1

[7] = system: Italian ryegrass (Lolium mutiflorum); test: Test C postemergence, visual plant response rating
Outline: as §1

[8] = system: barnyardgrass (Echinochloa crus-galli); test: Test C postemergence, visual plant response rating
Outline: as §1

[9] = system: blackgrass (Alopecurus myosuroides); test: Test C postemergence, visual plant response rating
Outline: as §1

[10] = system: corn (Zea mays); test: Test C postemergence, visual plant response rating
Outline: as §1

[11] = system: foxtail, giant (giant foxtail, Setaria faberi); test: Test C postemergence, visual plant response rating
Outline: as §1

[12] = system: galium (catchweed bedstraw, Galium aparine); test: Test C postemergence, visual plant response rating
Outline: as §1

[13] = system: kochia (Bassia scoparia); test: Test C postemergence, visual plant response rating
Outline: as §1

[14] = system: pigweed (Amaranthus retroflexus); test: Test C postemergence, visual plant response rating
Outline: as §1

[15] = system: ragweed (common ragweed, Ambrosia artemisiifolia); test: Test C postemergence, visual plant response rating
Outline: as §1

[16] = system: wheat (Triticum aestivum); test: Test C postemergence, visual plant response rating
Outline: as §1

[17] = system: barnyardgrass (Echinochloa crus-galli); test: Test D flooded paddy test, visual plant response rating; conditions: 250 g ai/ha, scale 0 to 100 (0 no effect, 100 complete control), 13 to 15 d
Outline: (§2)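 2-leaf plants, flooded 3 cm, cpd into paddy water; greenhouse 13–15 d; visual rating vs controls, 0 = no effect, 100 = complete control; dash = no result.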

[18] = system: duck salad (Heteranthera limosa); test: as above; conditions: 250 g ai/ha, scale 0 to 100 (0 no effect, 100 complete control), 13 to 15 d
Outline: as §2

[19] = system: rice (Oryza sativa); test: as above; conditions: 250 g ai/ha, scale 0 to 100 (0 no effect, 100 complete control), 13 to 15 d
Outline: as §2

[20] = system: sedge umbrella (small-flower umbrella sedge, Cyperus difformis); test: as above; conditions: 250 g ai/ha, scale 0 to 100 (0 no effect, 100 complete control), 13 to 15 d
Outline: as §2

[21] = Test C, postemergence, 125 g ai/ha

In the case of `Cc1nn(C)c(=O)c(C(=NOCC2CC2)c2cc(Cl)cc(Cl)c2Cl)c1O` [Compound 293], the “Ryegrass, Italian plant response rating (0 to 100 scale)” value (shortened to “Ryegrass, Italian plant response rating”) ([1]; 31 g ai/ha) is reported as 30, the “Ryegrass, Italian plant response rating” value ([1]; 125 g ai/ha) is reported as 100 and the “Barnyardgrass plant response rating (0 to 100 scale)” value (“Barnyardgrass plant response rating” for short) ([2]; 31 g ai/ha) is reported as 0. The “Barnyardgrass plant response rating” value ([2]; 125 g ai/ha) was 0, the “Foxtail, Giant plant response rating (0 to 100 scale)” value (“Foxtail, Giant plant response rating” below) ([3]; 31 g ai/ha) was 90 and the “Foxtail, Giant plant response rating” value ([3]; 125 g ai/ha) was 100. The “Kochia plant response rating (0 to 100 scale)” value (“Kochia plant response rating” below) ([4]; 31 g ai/ha) was 0, the “Kochia plant response rating” value ([4]; 125 g ai/ha) was 0 and the “Pigweed plant response rating (0 to 100 scale)” value (“Pigweed plant response rating” below) ([5]; 31 g ai/ha) was 0. For the same molecule, the “Pigweed plant response rating” value ([5]; 125 g ai/ha) was 70, the “Ragweed plant response rating (0 to 100 scale)” value (“Ragweed plant response rating” for short) ([6]; 31 g ai/ha) was 40 and the “Ragweed plant response rating” value ([6]; 125 g ai/ha) was 100. The “Ryegrass, Italian plant response rating” value ([7]; Postemergence, 31 g ai/ha) was 100, the “Ryegrass, Italian plant response rating” value [7, 21] was 100 and the “Barnyardgrass plant response rating” value ([8]; Postemergence, 31 g ai/ha) was 20. For the same molecule, the “Barnyardgrass plant response rating” value [8, 21] was 50, the “Blackgrass plant response rating (0 to 100 scale)” value (from here on “Blackgrass plant response rating”) ([9]; Postemergence, 31 g ai/ha) was 0 and the “Blackgrass plant response rating” value [9, 21] was 0. The “Corn plant response rating (0 to 100 scale)” value (“Corn plant response rating” for short) ([10]; Postemergence, 31 g ai/ha) was 0, the “Corn plant response rating” value [10, 21] was 10 and the “Foxtail, Giant plant response rating” value ([11]; Postemergence, 31 g ai/ha) was 40. For the same molecule, the “Foxtail, Giant plant response rating” value [11, 21] was 80, the “Galium plant response rating (0 to 100 scale)” value (shortened to “Galium plant response rating”) ([12]; Postemergence, 31 g ai/ha) was 100 and the “Galium plant response rating” value [12, 21] was 100. The “Kochia plant response rating” value ([13]; Postemergence, 31 g ai/ha) was 0, the “Kochia plant response rating” value [13, 21] was 30 and the “Pigweed plant response rating” value ([14]; Postemergence, 31 g ai/ha) was 20. The “Pigweed plant response rating” value [14, 21] was 40, the “Ragweed plant response rating” value ([15]; Postemergence, 31 g ai/ha) was 100 and the “Ragweed plant response rating” value [15, 21] was 100. For the same molecule, the “Wheat plant response rating (0 to 100 scale)” value (from here on “Wheat plant response rating”) ([16]; Postemergence, 31 g ai/ha) was 40, the “Wheat plant response rating” value [16, 21] was 70 and the “Plant response rating, Barnyardgrass (Flood)” value [17] was 0. For the same molecule, the “Plant response rating, Ducksalad (Flood)” value [18] was 0, the “Plant response rating, Rice (Flood)” value [19] was 0 and the “Plant response rating, Sedge, Umbrella (Flood)” value (“Plant response rating, Sedge” below) [20] was 0.

With `CO/N=C(/c1c(O)cnn(C)c1=O)c1ccc(F)c2ccccc12` [Compound 304] the “Ryegrass, Italian plant response rating” value ([1]; 31 g ai/ha) was 0, the “Ryegrass, Italian plant response rating” value ([1]; 125 g ai/ha) was 20 and the “Barnyardgrass plant response rating” value ([2]; 31 g ai/ha) was 0. For the same molecule, the “Barnyardgrass plant response rating” value ([2]; 125 g ai/ha) was 0, the “Foxtail, Giant plant response rating” value ([3]; 31 g ai/ha) was 0 and the “Foxtail, Giant plant response rating” value ([3]; 125 g ai/ha) was 10. The “Kochia plant response rating” value ([4]; 31 g ai/ha) was 0, the “Kochia plant response rating” value ([4]; 125 g ai/ha) was 0 and the “Pigweed plant response rating” value ([5]; 31 g ai/ha) was 10. For the same molecule, the “Pigweed plant response rating” value ([5]; 125 g ai/ha) was 20, the “Ragweed plant response rating” value ([6]; 31 g ai/ha) was 0 and the “Ragweed plant response rating” value ([6]; 125 g ai/ha) was 40. The “Ryegrass, Italian plant response rating” value ([7]; Postemergence, 31 g ai/ha) was 20, the “Ryegrass, Italian plant response rating” value [7, 21] was 60 and the “Barnyardgrass plant response rating” value ([8]; Postemergence, 31 g ai/ha) was 0. For the same molecule, the “Barnyardgrass plant response rating” value [8, 21] was 0, the “Blackgrass plant response rating” value ([9]; Postemergence, 31 g ai/ha) was 0 and the “Blackgrass plant response rating” value [9, 21] was 0. The “Corn plant response rating” value ([10]; Postemergence, 31 g ai/ha) was 10, the “Corn plant response rating” value [10, 21] was 20 and the “Foxtail, Giant plant response rating” value ([11]; Postemergence, 31 g ai/ha) was 0. The “Foxtail, Giant plant response rating” value [11, 21] was 20, the “Galium plant response rating” value ([12]; Postemergence, 31 g ai/ha) was 10 and the “Galium plant response rating” value [12, 21] was 80. The “Kochia plant response rating” value ([13]; Postemergence, 31 g ai/ha) was 30, the “Kochia plant response rating” value [13, 21] was 50 and the “Pigweed plant response rating” value ([14]; Postemergence, 31 g ai/ha) was 50. The “Pigweed plant response rating” value [14, 21] was 80, the “Ragweed plant response rating” value ([15]; Postemergence, 31 g ai/ha) was 0 and the “Ragweed plant response rating” value [15, 21] was 10. For the same molecule, the “Wheat plant response rating” value ([16]; Postemergence, 31 g ai/ha) was 0, the “Wheat plant response rating” value [16, 21] was 0 and the “Plant response rating, Barnyardgrass (Flood)” value [17] was 0. For the same molecule, the “Plant response rating, Ducksalad (Flood)” value [18] was 0, the “Plant response rating, Rice (Flood)” value [19] was 0 and the “Plant response rating, Sedge” value [20] was 0.

For `CO/N=C(\c1c(O)cnn(C)c1=O)c1ccc(F)c2ccccc12` [Compound 303], the “Ryegrass, Italian plant response rating” value ([1]; 31 g ai/ha) was 0, the “Ryegrass, Italian plant response rating” value ([1]; 125 g ai/ha) was 20 and the “Barnyardgrass plant response rating” value ([2]; 31 g ai/ha) was 0. For the same molecule, the “Barnyardgrass plant response rating” value ([2]; 125 g ai/ha) was 0, the “Foxtail, Giant plant response rating” value ([3]; 31 g ai/ha) was 0 and the “Foxtail, Giant plant response rating” value ([3]; 125 g ai/ha) was 10. The “Kochia plant response rating” value ([4]; 31 g ai/ha) was 0, the “Kochia plant response rating” value ([4]; 125 g ai/ha) was 10 and the “Pigweed plant response rating” value ([5]; 31 g ai/ha) was 10. The “Pigweed plant response rating” value ([5]; 125 g ai/ha) was 30, the “Ragweed plant response rating” value ([6]; 31 g ai/ha) was 0 and the “Ragweed plant response rating” value ([6]; 125 g ai/ha) was 20. The “Ryegrass, Italian plant response rating” value ([7]; Postemergence, 31 g ai/ha) was 20, the “Ryegrass, Italian plant response rating” value [7, 21] was 40 and the “Barnyardgrass plant response rating” value ([8]; Postemergence, 31 g ai/ha) was 0. The “Barnyardgrass plant response rating” value [8, 21] was 10, the “Blackgrass plant response rating” value ([9]; Postemergence, 31 g ai/ha) was 0 and the “Blackgrass plant response rating” value [9, 21] was 0. The “Corn plant response rating” value ([10]; Postemergence, 31 g ai/ha) was 0, the “Corn plant response rating” value [10, 21] was 0 and the “Foxtail, Giant plant response rating” value ([11]; Postemergence, 31 g ai/ha) was 0. For the same molecule, the “Foxtail, Giant plant response rating” value [11, 21] was 20, the “Galium plant response rating” value ([12]; Postemergence, 31 g ai/ha) was 30 and the “Galium plant response rating” value [12, 21] was 70. The “Kochia plant response rating” value ([13]; Postemergence, 31 g ai/ha) was 40, the “Kochia plant response rating” value [13, 21] was 50 and the “Pigweed plant response rating” value ([14]; Postemergence, 31 g ai/ha) was 40. For the same molecule, the “Pigweed plant response rating” value [14, 21] was 60, the “Ragweed plant response rating” value ([15]; Postemergence, 31 g ai/ha) was 10 and the “Ragweed plant response rating” value [15, 21] was 20. The “Wheat plant response rating” value ([16]; Postemergence, 31 g ai/ha) was 0, the “Wheat plant response rating” value [16, 21] was 0 and the “Plant response rating, Barnyardgrass (Flood)” value [17] was 0. For the same molecule, the “Plant response rating, Ducksalad (Flood)” value [18] was 0, the “Plant response rating, Rice (Flood)” value [19] was 0 and the “Plant response rating, Sedge” value [20] was 0.
